Laboratory results as given in patent publication US12398120B2, “Substituted hydantoinamides as ADAMTS7 antagonists” (BAYER AKTIENGESELLSCHAFT, priority 2019, dated 2025).

biological target: ADAMTS4 (Homo sapiens (Human), UniProt O75173); experiment: Selectivity assay for ADAMTS-7 modulators: ADAMTS4 (FRET substrate); format: biochemical; conditions: ADAMTS4 (R&D 4307-AD) 50 nM, substrate Dabcyl-EEVKAKVQPY-Glu(Edans)-NH2 1 μM, 120 min, 32° C.
Procedure, shortened: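 Human ADAMTS4 with compound in DMSO, or DMSO control; reaction started by adding FRET substrate in reaction buffer. Fluorescence increase measured at substrate-specific wavelengths. IC50 derived from % inhibition of enzyme activity versus compound concentration.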

Sequence of ADAMTS4 (O75173 213-685): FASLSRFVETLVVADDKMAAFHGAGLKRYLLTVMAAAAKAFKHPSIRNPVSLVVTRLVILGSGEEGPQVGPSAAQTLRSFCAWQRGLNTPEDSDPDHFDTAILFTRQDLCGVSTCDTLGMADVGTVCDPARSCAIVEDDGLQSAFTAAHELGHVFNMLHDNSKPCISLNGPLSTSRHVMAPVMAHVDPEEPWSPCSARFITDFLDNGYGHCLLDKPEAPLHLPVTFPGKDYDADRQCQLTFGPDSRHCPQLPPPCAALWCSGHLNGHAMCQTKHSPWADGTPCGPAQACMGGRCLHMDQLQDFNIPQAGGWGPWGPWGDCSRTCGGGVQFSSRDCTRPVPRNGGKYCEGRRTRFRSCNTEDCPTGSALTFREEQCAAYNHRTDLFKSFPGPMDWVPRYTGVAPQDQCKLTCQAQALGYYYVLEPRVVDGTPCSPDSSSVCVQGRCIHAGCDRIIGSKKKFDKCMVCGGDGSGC

Cc1ccc(-c2cc(Cl)ccc2C(=O)NCC2(c3nccn3C)NC(=O)NC2=O)cc1 (single isomer, unassigned; ent-5) [Example 153, Ent-5-Chloro-4′-Methyl-N-{[4-(1-Methyl-1H-Imidazol-2-Yl)-2,5-Dioxoimidazolidin-4-Yl]Methyl}[Biphenyl]-2-Carboxamide] and Cn1ccnc1C1(CNC(=O)c2ccc(Cl)cc2-c2ccc(C(F)(F)F)cc2)NC(=O)NC1=O (single isomer, unassigned; ent-5) [Example 161, Ent-5-Chloro-N-{[4-(1-Methyl-1H-Imidazol-2-Yl)-2,5-Dioxoimidazolidin-4-Yl]Methyl}-4′-(Trifluoromethyl)[Biphenyl]-2-Carboxamide] are within 1.5-fold of each other in IC50: 0.51 µM for the first, 0.728 µM for the second.

First: Cc1ccc(C(=O)NCC2(c3ncsc3C)NC(=O)NC2=O)c(-c2ccc(C(F)(F)F)cc2)c1 (single isomer, unassigned; ent-5) [Example 168, Ent-5-Methyl-N-{[4-(5-Methyl-1,3-Thiazol-4-Yl)-2,5-Dioxoimidazolidin-4-Yl]Methyl}-4′-(Trifluoromethyl)[Biphenyl]-2-Carboxamide]
Second: Cc1ccc(C(=O)NCC2(c3ccnn3C)NC(=O)NC2=O)c(-c2ccc(C(F)(F)F)cc2)c1 (single isomer, unassigned; ent-5) [Example 308, Ent-5-Methyl-N-{[4-(1-Methyl-1H-Pyrazol-5-Yl)-2,5-Dioxoimidazolidin-4-Yl]Methyl}-4′-(Trifluoromethyl)[Biphenyl]-2-Carboxamide]
The IC50 of the first is 2.2-fold lower: 1.9 µM for the first, 4.2 µM for the second.

First: Cn1nccc1C1(CNC(=O)c2ccc(F)cc2-c2ccc(C(F)(F)F)cc2)NC(=O)NC1=O (single isomer, unassigned; ent-5) [Example 184, Ent-5-Fluoro-N-{[4-(1-Methyl-1H-Pyrazol-5-Yl)-2,5-Dioxoimidazolidin-4-Yl]Methyl}-4′-(Trifluoromethyl)[Biphenyl]-2-Carboxamide]
Second: Cn1nccc1C1(CNC(=O)c2ccc(Cl)cc2-c2ccc(C(F)(F)F)cc2)NC(=O)NC1=O (single isomer, unassigned; ent-5) [Example 188, Ent-5-Chloro-N-{[4-(1-Methyl-1H-Pyrazol-5-Yl)-2,5-Dioxoimidazolidin-4-Yl]Methyl}-4′-(Trifluoromethyl)[Biphenyl]-2-Carboxamide]
The IC50 of the first is 3.4-fold higher: 9.37 µM for the first, 2.73 µM for the second.

Cn1nccc1C1(CNC(=O)c2ccc(F)c(F)c2-c2ccc(C(F)(F)F)cc2)NC(=O)NC1=O (single isomer, unassigned; ent-5) [Example 191, Ent-5,6-Difluoro-N-{[4-(1-Methyl-1H-Pyrazol-5-Yl)-2,5-Dioxoimidazolidin-4-Yl]Methyl}-4′-(Trifluoromethyl)[Biphenyl]-2-Carboxamide] and Cn1nccc1C1(CNC(=O)c2cccc(F)c2-c2ccc(C(F)(F)F)cc2)NC(=O)NC1=O (single isomer, unassigned; ent-6) [Example 195, Ent-6-Fluoro-N-{[4-(1-Methyl-1H-Pyrazol-5-Yl)-2,5-Dioxoimidazolidin-4-Yl]Methyl}-4′-(Trifluoromethyl)[Biphenyl]-2-Carboxamide] are within 1.5-fold of each other in IC50: 6.48 µM for the first, 4.63 µM for the second.

Compared with CC(C)C1(CNC(=O)c2ccc(F)cc2-c2ccc(C(F)(F)F)cc2)NC(=O)NC1=O (single isomer, unassigned; ent-5) [Example 207, Ent-5-Fluoro-N-[(4-Isopropyl-2,5-Dioxoimidazolidin-4-Yl)Methyl]-4′-(Trifluoromethyl)[Biphenyl]-2-Carboxamide], CC(C)C1(CNC(=O)c2cccc(F)c2-c2ccc(C(F)(F)F)cc2)NC(=O)NC1=O (single isomer, unassigned; ent-6) [Example 210, Ent-6-Fluoro-N-[(4-Isopropyl-2,5-Dioxoimidazolidin-4-Yl)Methyl]-4′-(Trifluoromethyl)[Biphenyl]-2-Carboxamide] is lower in IC50: over 50 µM for the first, 23 µM for the second. The second is the more potent here.

Compared with O=C1NC(=O)C(CNC(=O)c2ccc(F)cc2-c2ccc(C(F)(F)F)cc2)(C2(F)CC2)N1 (single isomer, unassigned; ent-5) [Example 253, Ent-5-Fluoro-N-{[4-(1-Fluorocyclopropyl)-2,5-Dioxoimidazolidin-4-Yl]Methyl}-4′-(Trifluoromethyl)[Biphenyl]-2-Carboxamide], O=C1NC(=O)C(CNC(=O)c2ccc(F)cc2-c2ccc(C(F)(F)F)cc2)(C23CC(F)(C2)C3)N1 (single isomer, unassigned; ent-5) [Example 294, Ent-5-Fluoro-N-{[4-(3-Fluorobicyclo[1.1.1]Pentan-1-Yl)-2,5-Dioxoimidazolidin-4-Yl]Methyl}-4′-(Trifluoromethyl)[Biphenyl]-2-Carboxamide] is 3.4-fold higher in IC50: 11 µM for the first, 37 µM for the second. The first is the more potent here.

Going from Cc1ccc(C(=O)NCC2(c3nccn3C)NC(=O)NC2=O)c(-c2ccc(C(F)(F)F)cc2)c1C (single isomer, unassigned; ent-5) [Example 287, Ent-5,6-Dimethyl-N-{[4-(1-Methyl-1H-Imidazol-2-Yl)-2,5-Dioxoimidazolidin-4-Yl]Methyl}-4′-(Trifluoromethyl)[Biphenyl]-2-Carboxamide] to Cc1cccc(C(=O)NCC2(c3nccn3C)NC(=O)NC2=O)c1-c1ccc(C(F)(F)F)cc1 (single isomer, unassigned; ent-6) [Example 133, Ent-6-Methyl-N-{[4-(1-Methyl-1H-Imidazol-2-Yl)-2,5-Dioxoimidazolidin-4-Yl]Methyl}-4′-(Trifluoromethyl)[1,1′-Biphenyl]-2-Carboxamide], the IC50 rises from 0.16 µM to 1.6 µM (10-fold).

First: Cn1nccc1C1(CNC(=O)c2cc(F)ccc2-c2ccc(C(F)(F)F)nc2)NC(=O)NC1=O (single isomer, unassigned; ent-5) [Example 292, Ent-5-Fluoro-N-{[4-(1-Methyl-1H-Pyrazol-5-Yl)-2,5-Dioxoimidazolidin-4-Yl]Methyl}-2-[6-(Trifluoromethyl)Pyridin-3-Yl]Benzamide]
Second: Cn1nccc1C1(CNC(=O)c2ccc(C(F)F)cc2-c2ccc(C(F)(F)F)cc2)NC(=O)NC1=O (single isomer, unassigned; ent-5) [Example 309, Ent-5-(Difluoromethyl)-N-{[4-(1-Methyl-1H-Pyrazol-5-Yl)-2,5-Dioxoimidazolidin-4-Yl]Methyl}-4′-(Trifluoromethyl)[Biphenyl]-2-Carboxamide]
The IC50 of the first is 3.5-fold higher: 9.5 µM for the first, 2.7 µM for the second.

Compared with O=C1NC(=O)C(CNC(=O)c2ccc(F)c(F)c2-c2ccc(C(F)(F)F)cc2)(C2(F)CC2)N1 (single isomer, unassigned; ent-5) [Example 298, Ent-5,6-Difluoro-N-{[4-(1-Fluorocyclopropyl)-2,5-Dioxoimidazolidin-4-Yl]Methyl}-4′-(Trifluoromethyl)[Biphenyl]-2-Carboxamide], O=C1NC(=O)C(CNC(=O)c2cccc(F)c2-c2ccc(C(F)(F)F)cc2)(C2(F)CC2)N1 (single isomer, unassigned; ent-6) [Example 300, Ent-6-Fluoro-N-{[4-(1-Fluorocyclopropyl)-2,5-Dioxoimidazolidin-4-Yl]Methyl}-4′-(Trifluoromethyl)[Biphenyl]-2-Carboxamide] is 2.5-fold higher in IC50: 9.3 µM for the first, 23 µM for the second. The first is the more potent here.

Cn1ccnc1C1(CNC(=O)c2cccc(F)c2-c2ccc(C(F)(F)F)cc2)NC(=O)NC1=O (single isomer, unassigned; ent-6) [Example 163, Ent-6-Fluoro-N-{[4-(1-Methyl-1H-Imidazol-2-Yl)-2,5-Dioxoimidazolidin-4-Yl]Methyl}-4′-(Trifluoromethyl)[Biphenyl]-2-Carboxamide] and Cn1nccc1C1(CNC(=O)c2cccc(Cl)c2-c2ccc(C(F)(F)F)cc2)NC(=O)NC1=O (single isomer, unassigned; ent-6) [Example 310, Ent-6-Chloro-N-{[4-(1-Methyl-1H-Pyrazol-5-Yl)-2,5-Dioxoimidazolidin-4-Yl]Methyl}-4′-(Trifluoromethyl)[Biphenyl]-2-Carboxamide] are within 1.5-fold of each other in IC50: 1.3 µM for the first, 1.9 µM for the second.

CC1CCC1C1(CNC(=O)c2ccccc2-c2ccc(C(F)(F)F)cc2)NC(=O)NC1=O (stereo not drawn) [Example 13, Diamix-N-{[4-(2-Methylcyclobutyl)-2,5-Dioxoimidazolidin-4-Yl]Methyl}-4′-(Trifluoromethyl)[Biphenyl]-2-Carboxamide] and O=C1NC(=O)[C@](CNC(=O)c2ccccc2-c2ccc(OC(F)(F)F)cc2)(C2CC2)N1 [Example 21, N-{[(4R)-4-Cyclopropyl-2,5-Dioxoimidazolidin-4-Yl]Methyl}-4′-(Trifluoromethoxy)[Biphenyl]-2-Carboxamide] cannot be ordered by IC50: over 50 µM for the first, over 50 µM for the second.

First: Cc1ccc(-c2cnccc2C(=O)NC[C@@]2(C3CC3)NC(=O)NC2=O)cc1 [Example 19, N-{[(4R)-4-Cyclopropyl-2,5-Dioxoimidazolidin-4-Yl]Methyl}-3-(4-Methylphenyl)Isonicotinamide]
Second: Cc1ccc(-c2cc(C)ccc2C(=O)NC[C@@]2(C3CC3)NC(=O)NC2=O)cc1 [Example 22, N-{[(4R)-4-Cyclopropyl-2,5-Dioxoimidazolidin-4-Yl]Methyl}-4′,5-Dimethyl[Biphenyl]-2-Carboxamide]
The IC50 of the first is higher: over 50 µM for the first, 3.9 µM for the second.

Compared with O=C1NC(=O)[C@](CNC(=O)c2cc(F)c(F)cc2-c2ccc(C(F)(F)F)cc2)(C2CC2)N1 [Example 20, N-{[(4R)-4-Cyclopropyl-2,5-Dioxoimidazolidin-4-Yl]Methyl}-4,5-Difluoro-4′-(Trifluoromethyl)[Biphenyl]-2-Carboxamide], O=C1NC(=O)[C@](CNC(=O)c2ccc(F)c(F)c2-c2ccc(C(F)(F)F)cc2)(C2CC2)N1 [Example 23, N-{[(4R)-4-Cyclopropyl-2,5-Dioxoimidazolidin-4-Yl]Methyl}-5,6-Difluoro-4′-(Trifluoromethyl)[Biphenyl]-2-Carboxamide] is 2.2-fold lower in IC50: 28 µM for the first, 12.5 µM for the second.

same assay, conditions: ADAMTS4 (R&D 4307-AD) 50 nM, substrate Dabcyl-[…]-Glu(Edans)-NH2 1 μM, 120 min, 32° C.

Molecule Cc1scnc1C1(CNC(=O)c2ccc(F)cc2-c2ccc(C(F)(F)F)cc2)NC(=O)NC1=O (single isomer, unassigned; ent-5) [Example 176, Ent-5-Fluoro-N-{[4-(5-Methyl-1,3-Thiazol-4-Yl)-2,5-Dioxoimidazolidin-4-Yl]Methyl}-4′-(Trifluoromethyl)[Biphenyl]-2-Carboxamide] has an IC50 of 4.13 µM.
